Reference: publication PMC7159882, “Polyunsaturated fatty acid analogues differentially affect cardiac NaV, CaV, and KV channels through unique mechanisms” (eLife, 2020)

Target: T1, Kv7.1/KCNE1 (Homo sapiens, UniProt P51787)
T1 construct: cRNA encoding Kv7.1 (UniProt: P51787), KCNE1 (UniProt: P15382.1); expressed in transfected cells; host or cells: Xenopus laevis oocytes (cRNA injection, Kv7.1:KCNE1 3:1 by weight)
Assay: Two-electrode voltage clamp of Kv7.1/KCNE1 expressed in Xenopus oocytes
Type: cell-based
Design: Fitted slope factor of conductance vs voltage relationship: unit of the concentration uncertain
Settings: for IKs I/I0: relative current at 0 mV
Description: Molecular Biology cRNA encoding Kv7.1 (UniProt: P51787), KCNE1 (UniProt: P15382.1), Nav1.5 (UniProt: Q14524.1), Nav β1 (UniProt: […]), Nav β3 (UniProt: […]), Cav1.2 (GenBank: CAA84346), Cav β3 (Uniprot: P54286), Cav β2 (Uniprot: P54288), and Cav α2δ (Uniprot: P13806) were transcribed using the mMessage mMachine T7 kit (Ambion). 50 ng of cRNA was injected into defolliculated Xenopus laevis oocytes (Ecocyte, Austin, TX): For Kv7.1/KCNE1 channel expression, we injected a 3:1, weight:weight (Kv7.1:KCNE1) cRNA ratio. For Nav1.5 channel expression, we injected a 2:1, weight:weight (Nav1.5:β1) cRNA ratio. For Cav1.2 channel expression, we injected a 2:1:1, weight:weight (Cav1.2:β3:α2δ) cRNA ratio. The exact stoichiometry for channel macromolecular complexes, including α -subunits and auxiliary subunits is not clear for many ion channels. For example, there have been multiple reported stoichiometries for Kv7.1:KCNE1 determined in heterologous expression systems with some groups reporting flexible stoichiometry of 4 Kv7.1: 1–4 KCNE1 and others reporting a fixed stoichiometry of 4 Kv7.1: 2 KCNE1 ([Murray et al., 2016]; [Nakajo et al., 2010]). The ratios of cRNA of α- and auxiliary subunits that we injected in Xenopus laevis oocytes are such that all α-subunits are assumed to be in complex with auxiliary subunits. This allows a more homogenous population of ion channels with auxiliary subunits. One caveat to expressing ion channels as macromolecular complexes is that there are many other auxiliary subunits that could associate with the channel α -subunit that are present in cardiomyocytes and have the potential to alter PUFA-induced effects, but that are not being co-expressed in our experiments. In this work, we are co-expressing some of the auxiliary subunits that have been primarily reported to associate with their respective α -subunits in cardiomyocytes. Following cRNA injection, cells were incubated for 72–96 hr in standard ND96 solution (96 mM NaCl, 2 mM KCl, 1 mM MgCl2, 1.8 mM CaCl2, 5 mM HEPES; pH = 7.5) containing 1 mM pyruvate at 16°C prior to electrophysiological recordings.
Xenopus laevis oocytes were recorded in the two-electrode voltage clamp (TEVC) configuration. Recording pipettes were filled with 3 M KCl. The recording chamber was filled with ND96 (96 mM NaCl, 2 mM KCl, 1 mM MgCl2, 1.8 mM CaCl2, 5 mM HEPES; pH 7.5). For Cav1.2/β3/α2δ channel recordings, Xenopus oocytes were injected with 50 nl of 100 mM EGTA and incubated at 10°C for 30 min prior to electrophysiological recordings in order to sequester cytosolic calcium. In addition, Cav1.2/β3/α2δ channel recordings were done in Ca^2+-free solutions, using Ba^2+ as the charge carrier, to prevent calcium-dependent inactivation of Cav1.2/β3/α2δ channels. Calcium-dependent inactivation was not studied in this work, due to the presence of large calcium-activated chloride currents present in Xenopus laevis oocytes. PUFAs were obtained from Cayman Chemical (Ann Arbor, MI.) or synthesized in house (Linköping, Sweden) through methods previously described ([Bohannon et al., 2020]) and kept at −20 °C as 100 mM stock solutions in ethanol. […] PUFAs were perfused into the recording chamber using the Rainin Dynamax Peristaltic Pump (Model RP-1) (Rainin Instrument Co., Oakland, CA. USA).
Electrophysiological recordings were obtained using Clampex 10.3 software (Axon, pClamp, Molecular Devices). To measure Kv7.1/KCNE1 currents we apply PUFAs as the membrane potential is stepped every 30 s from −80 mV to 0 mV for 5 s before stepping to −40 mV and back to −80 mV to ensure that the PUFA effects on the current at 0 mV reached steady state. A voltage-step protocol was used to measure the current vs. voltage (I-V) relationship before PUFA application and after the PUFA effects had reached steady state for each concentration of PUFA. Cells were held at −80 mV followed by a hyperpolarizing prepulse to −140 mV. […]

CCCCC/C=C\C/C=C\CC/C=C\CCCC(=O)NCCS(=O)(=O)O [Pin-taurine]
Fitted slope factor of conductance vs voltage relationship (0.2 μM): 17.9 ± 0.82 mV | Gmax/Gmax0 (0.2 μM): 1.2 ± 0.1 | ΔV0.5 (voltage dependence of activation) (0.2 μM): 2.6 ± 2.4 mV | IKs I/I0 (0.2 μM): 1.1 ± 0.1 | Fitted slope factor of conductance vs voltage relationship (0.7 μM): 17.7 ± 0.82 mV | Gmax/Gmax0 (0.7 μM): 1.3 ± 0.2 | ΔV0.5 (voltage dependence of activation) (0.7 μM): 2.3 ± 3.5 mV | IKs I/I0 (0.7 μM): 1.4 ± 0.4 | Fitted slope factor of conductance vs voltage relationship (2 μM): 18.3 ± 0.96 mV | Gmax/Gmax0 (2 μM): 2.0 ± 0.4 | ΔV0.5 (voltage dependence of activation) (2 μM): -4.9 ± 3.4 mV | IKs I/I0 (2 μM): 3.0 ± 0.4 | Fitted slope factor of conductance vs voltage relationship (7 μM): 18.8 ± 1.0 mV | ΔV0.5 (voltage dependence of activation) (7 μM): −23.8 ± 2.7 mV | Gmax/Gmax0 (7 μM, listed as pin-taurine): 2.2 ± 0.4 | ΔV0.5 (voltage dependence of activation) (7 μM, listed as pin-taurine): -23.8 ± 2.7 mV | IKs I/I0 (7 μM): 6.8 ± 1.0 (p=0.01) | IKs I/I0 (7 μM, listed as pin-taurine): 6.8 ± 1.0 | Fitted slope factor of conductance vs voltage relationship (20 μM): 16.8 ± 0.73 mV | Gmax/Gmax0 (20 μM): 1.9 ± 0.3 | ΔV0.5 (voltage dependence of activation) (20 μM): -51.6 ± 3.5 mV | IKs I/I0 (20 μM): 9.0 ± 1.4
